# Data taken from patent publication US12274679B2, “Substituted alkylphenols as HCN1 antagonists” (Cornell University, priority 2018, dated 2025).
# Entries after “also recorded” stand apart in the source; their conditions may differ.
# Key:
# HCN1 channels = target: T1, HCN1 channels (Mus musculus, UniProt O88704); assay: Two electrode voltage clamp of HCN1 channels expressed in Xenopus oocytes (shift in V1/2); assay type: cell-based; settings: for potency as HCN1 inverse agonist compared with propofol: relative to propofol (2,6-di-iso-propylphenol); for offset of the 2,6-DTBP Hill fit of the V1/2 shift: right shift of the concentration-response relative to 2,6-DTBP, HCN1; for efficacy apparent in the concentration response (Hill fit): ΔV1/2 of HCN1, 2,6 di-alkylbenzene analogues; for inhibition of HCN1 channel gating: 20 min pre-incubation, 20 mM HPβCD + DMSO, compared with free 2,6-DTBP
# T1 sequence (O88704 74-390 limits assumed): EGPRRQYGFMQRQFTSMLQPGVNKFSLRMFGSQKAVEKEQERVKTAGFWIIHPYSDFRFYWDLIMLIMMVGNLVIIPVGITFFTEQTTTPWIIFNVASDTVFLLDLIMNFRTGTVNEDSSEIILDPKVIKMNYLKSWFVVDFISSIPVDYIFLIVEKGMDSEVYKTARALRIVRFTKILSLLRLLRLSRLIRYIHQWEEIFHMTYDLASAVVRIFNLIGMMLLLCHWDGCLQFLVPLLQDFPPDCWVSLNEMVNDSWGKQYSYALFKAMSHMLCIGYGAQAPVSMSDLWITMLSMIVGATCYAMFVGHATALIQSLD
# HCN1 vs. HCN2-4 = assay: Effect on V1/2 of HCN1-4 channels (isoform selectivity); assay type: cell-based
# [1] = system: chronic constriction injury model of peripheral neuropathic pain; settings: bolus administration; cited from earlier work
# [2] = system: normal nociception, locomotor activity, motor coordination, muscle strength; settings: anti-hyperalgesic dose, cited from earlier work
# [3] = system: mechanical and thermal hyperalgesia after nerve ligation; assay: Nerve ligation model: paw withdrawal probability and hindpaw withdrawal latency after cumulative i.p. dosing
# [4] = Solubilisation in DMSO and dispersion into aqueous buffer; assay type: physicochemical
# [5] = Whole blood concentration after oral gavage, LC-MS/MS; assay type: in vivo; settings: rats, oral gavage in peanut oil, 0.58 mmole/kg, over 30 hours
# Description: FIG. 29 is a graph showing the concentration of BP4L-18:1:1 in whole blood after administration to rats. Eight adult rats were gavaged with either 0.5 mL of peanut oil (n=4) or 0.5 mL of peanut oil containing 0.58 mmole/kg BP4L-18:1:1 (n=4). Blood samples were obtained at the indicated times. Following extraction using equi-volumes of acetonitrile, precipitation and filtration, blood concentrations of BP4L-18:1:1 were determined using LC-MS/MS. Dotted black lines indicate the concentrations of BP4L-18:1:1 for individual animals that received drug, the solid black line indicates the mean±SEM for the plus-drug cohort. Dotted and solid grey lines are, respectively, the concentrations of BP4L-18:1:1 detected in individual peanut oil-alone animals and the mean±SEM thereof. Grey lines superimpose and are indistinguishable from the time axis.
# LCMS/MS was performed on an Agilent 1290 Infinity II UPLC system and Agilent 6495 Triple Quadrupole mass spectrometer. […] Quantitation was performed using multiple reaction monitoring in positive electrospray ionization mode using the transition 517.4→233.1 and a collision energy of 42. […]
# Pharmacokinetic properties of exemplary compound BP4L-18:1:1 (compound 6) were evaluated in rats (FIG. 29). In particular, concentration of BP4L-18:1:1 in whole blood samples were determined over the course of 30 hours after oral administration.
# [6] = system: animal models of neuropathic pain; settings: in vivo; cited from earlier work
# [7] = simultaneous fit, absence and presence of 3 μM 2,6-DTBP
smiles,measurement,setting,value
"CCC(C)c1ccc(O)c(C(C)CC)c1 (stereo not drawn) [2,4-DSBP, 2,4-di-sec-butylphenol]",potency as HCN1 inverse agonist compared with propofol,HCN1 channels,less potent
same,"offset of the 2,6-DTBP Hill fit of the V1/2 shift",HCN1 channels,23 fold
"CC(C)(C)c1ccc(O)c(C(C)(C)C)c1 [2,4-DTBP, 2,4-di-tert-butylphenol]",potency as HCN1 inverse agonist compared with propofol,HCN1 channels,more potent
same,"offset of the 2,6-DTBP Hill fit of the V1/2 shift",HCN1 channels,2 fold
"CCc1cccc(CC)c1O [2,6-DEP]",efficacy apparent in the concentration response (Hill fit),HCN1 channels,partial
"CC(C)C1CCCC(C(C)C)C1O (stereo not drawn) [2,6-DIPCH]",efficacy apparent in the concentration response (Hill fit),HCN1 channels,partial
"CC(C)c1cccc(C(C)C)c1O [2,6-DIPP, 2,6-di-iso-propylphenol]",efficacy apparent in the concentration response (Hill fit),HCN1 channels,full
"CCC(C)c1cccc(C(C)CC)c1O (stereo not drawn) [2,6-DSBP, 2,6-di-sec-butylphenol]",EC50,HCN1 channels,370 µM
same,potency as HCN1 inverse agonist compared with propofol,HCN1 channels,less potent
same,"offset of the 2,6-DTBP Hill fit of the V1/2 shift",HCN1 channels,15 fold
same,"JcI (association constant, common site model N=4)",HCN1 channels; [7],"3,696±2,948"
same,"JoI (association constant, common site model N=4)",HCN1 channels; [7],"881±1,801"
same,inverse agonist potency and efficacy,"HCN1 channels; ΔV1/2 in absence and presence of 3 μM 2,6-DTBP","low potency, high efficacy, inverse agonist"
same,efficacy apparent in the concentration response (Hill fit),HCN1 channels,partial
"CC(C)(C)C1CCCC(C(C)(C)C)C1O (stereo not drawn) [2,6-DTBCH]",efficacy apparent in the concentration response (Hill fit),HCN1 channels,partial
"CC(C)(C)c1cccc(C(C)(C)C)c1O [2,6-DTBP, 2,6-di-tert-butylphenol]",potency as HCN1 inverse agonist compared with propofol,HCN1 channels,more potent
same,efficacy apparent in the concentration response (Hill fit),HCN1 channels,full
same,selectivity for HCN1 vs. HCN2-4,HCN1 vs. HCN2-4,retains propofol's selectivity for HCN1 vs. HCN2-4
same,reversal of mechanical hypersensitivity,[1],~45%
same,reversal of thermal hypersensitivity,[1],complete reversal
same,normal nociception (pin prick test),[2],does not disrupt normal nociception
same,"locomotor activity, motor coordination and muscle strength","[2]; open field, rotarod, horizontal wire",nor does it perturb
same,mechanical and thermal hyperalgesia with respect to mechanical and thermal nociception,[3],Selectively Suppresses Mechanical and Thermal Hyperalgesia
same,thermal hyperalgesia (HPWL),[3]; heat source intensity 15%,ameliorates thermal hyperalgesia
same,thermal nociception (HPWL),[3]; heat source intensity 30%,without overt effect
CC(C)c1cc(N)cc(C(C)C)c1O [4-AP],"HCN1 antagonism by 4-substituted 2,6-DIPPs",HCN1 channels,effective
CC(C)c1cc(C(C)(C)C)cc(C(C)C)c1O [4-TBP],"HCN1 antagonism by 4-substituted 2,6-DIPPs",HCN1 channels,fully effective
CC(C)c1cc([N+](C)(C)C)cc(C(C)C)c1O [4-TMAP],"HCN1 antagonism by 4-substituted 2,6-DIPPs",HCN1 channels,ineffective
CC(Cl)CCCCCCCCC(=O)c1cc(C(C)(C)C)c(O)c(C(C)(C)C)c1 (stereo not drawn) [BP4C-11:0:1],"HCN1 antagonism of tethered, unanchored 2,6-DTBP","HCN1 channels; 10 and 100 μM, applied from the outside",4-adduct tolerance is retained
same,dispersion into an aqueous buffer,[4],reasonably easy to disperse
CC(C)(C)c1cc(C(=O)CCCCCCCCC(O)CO)cc(C(C)(C)C)c1O (stereo not drawn) [BP4L-10:0:1],inhibition of HCN1 channel gating,HCN1 channels,largely ineffective
same,dispersion into an aqueous buffer,[4],reasonably easy to disperse
"CC(C)(C)c1cc(C(=O)CCCCCCCC/C=C/CCCCCCC(O)CO)cc(C(C)(C)C)c1O (stereo not drawn) [BP4L-18:1:1, (E)-1-(3,5-di-tert-butyl-4-hydroxyphenyl)-18,19-dihydroxynonadec-10-en-1-one]",inhibition of HCN1 channel gating,HCN1 channels,"concentration-dependent; also recorded: effectively inhibits channel gating with a potency and efficacy indistinguishable from free 2,6-DT BP"
same,absorption / bioavailability from whole blood concentration,[5],absorbed demonstrating bioavailability
CCN(c1ccccc1)c1cc(=NC)n(C)c(C)n1.Cl [ZD7288],anti-hyperalgesia,[6],significant anti-hyperalgesia
COc1cc2c(cc1OC)CC(=O)N(CCCN(C)C[C@H]1Cc3cc(OC)c(OC)cc31)CC2 [ivabradine],anti-hyperalgesia,[6],significant anti-hyperalgesia
